Measurements published in a melting point compilation (Tetko et al.; mined from patent text by program, amines drawn as free bases though some values may be those of a salt).

Row | melting point | SMILES
1 | 258 to 260 °C | C#Cc1cc(C)c(C2=C(O)C3(CCN(OC)CC3)N(C)C2=O)c(C)c1
2 | 188 to 190 °C | CC1(CC2CCCC2)Cc2cc(O)c(Cl)c(Cl)c2C1=O (stereo not given)
3 | 84 °C | CCC1=NNC(C)=C(C(=O)OCCOC(C)C)C1c1cccc([N+](=O)[O-])c1 (stereo not given)
4 | 149 to 150 °C | COc1ccc(-c2nc(O)c(C)s2)cc1
5 | 111 °C | CCOC(=O)C1CCc2cc(NS(C)(=O)=O)ccc2O1 (stereo not given)
6 | 141 to 143 °C | N#Cc1ccc2[nH]c3c(c2c1)CC(NC(=O)OCc1ccccc1)CC3 (stereo not given)
7 | 96 to 98 °C | N[C@@H]1C[C@H](C2CCCCC2)c2ccccc2NC1=O (relative stereo)
8 | 65 to 66 °C | COc1ccc2cc([C@H](C)C(=O)OC[C@@]3(C)COC(C)(C)O3)ccc2c1
9 | 132 to 134 °C | CCC12CCC3=C(CCc4cc(OC(C)=O)ccc43)C1CCC2=O (stereo not given)
10 | 109 to 110 °C | CCCn1ccc2c(NCCc3ccc(OC)cc3)cccc2c1=O
11 | 116 to 119 °C | CC(C)(C)OC(=O)N[C@H](Cc1ccc(Cl)c(Cl)c1)C(=O)N1CCC[C@H]1C(=O)NC1CCc2nc(N)sc2C1 (stereo not given in full)
12 | 168 to 170 °C | CCCn1c(=O)c2nc(C(C)Cc3ccc(OCC(=O)O)cc3)[nH]c2n(CCC)c1=O (stereo not given)
13 | 167 to 168 °C | Cc1c(C(=O)Nc2ccc(CN3CCC(N4CCOCC4)CC3)c(C#N)c2)cnn1-c1ccc(Cl)cc1
14 | 128 to 130 °C | CC(C)(C)OC(=O)N1CCCN(c2ccc([N+](=O)[O-])cc2)CC1
15 | 115 to 120 °C | O=C1Nc2ccccc2C1C1CCN(CC(O)C2COc3ccccc3O2)CC1 (stereo not given)
16 | 85 to 87 °C | COc1cc(CC(=O)NCCOc2scc(C)c2C)ccc1OCCN
17 | 158 to 160 °C | CP(C)(=O)CNc1cc(Oc2ccc(C(F)(F)F)cn2)ccc1[N+](=O)[O-]
18 | 53 °C | CCC(C)(C)C1=C(OC(C)=O)C(=O)c2ccccc2C1=O
19 | 119 to 122 °C | N=C(N)NCCOc1ccc2c(c1)CC(CCC(=O)O)C(=O)N2 (stereo not given)
20 | 98 to 100 °C | COc1cccc(OC2COc3ccc(OCc4ccccc4)cc3C2=O)c1 (stereo not given)
21 | 228 to 230 °C | CN1CCC(c2c(O)cc(O)c3c(=O)cc(-c4ccccc4Cl)oc23)C1CO (stereo not given)
22 | 169 to 171 °C | Cc1nc(N2CCN(Cc3ccccc3)C2=O)sc1C(=O)NCc1ccccc1
23 | 199 to 201 °C | O=C1CCC(O)=C1Cc1ccc(Br)cc1
24 | 118 to 123 °C | O=C(Nc1ccc(Cl)c(Cl)c1)Oc1cccc(N=C=S)c1
25 | 84 to 86 °C | Oc1ccccc1N1CCC(CNC[C@H]2COc3ccc(Cl)cc3O2)CC1
26 | 218 to 220 °C | CC(C)(C)CC(C)(C)NCC(=O)N1CC2C(C1)C2Nc1ncc2cc(-c3ccccc3Cl)c(=O)n(C3CC3)c2n1 (stereo not given)
27 | 258 °C | CCOC(=O)c1cn(C)c2ccc(C(=O)c3c(C)c(OC)c4ccccn34)cc2c1=O

The remaining lines, values behind:

Row | SMILES | melting point
28 | CS(=O)(=O)c1ccc(-c2oc3ccccc3c(=O)c2-c2ccc(F)cc2)cc1 | 98 to 100 °C
29 | CC(C)Nc1cccnc1N1CCN(C(=O)c2ccc(C(=O)N[C@H](CO)c3ccccc3)cc2)CC1 | 93 to 95 °C
30 | Clc1ccc2c(NCc3ccccc3)nc(-n3ccnc3)nc2c1 | 265 to 268 °C
31 | O=C(O)C1CS(=O)(=O)C2CC(=O)N12 (stereo not given) | 164 to 167 °C
32 | CCOC(=O)CC(=O)c1cc(F)c(F)c(OC)c1F | 42 to 44 °C
33 | Cc1nn2ccc3c(c2c1CO)CCO3 | 173 to 174 °C
34 | c1ccc(CC2CCN(Cc3nc4ccccc4[nH]3)CC2)cc1 | 179 to 181 °C
35 | CC(Cn1ncnn1)n1nnc2cc3c(=O)n(C(C)Cn4ncnn4)nnc3cc2c1=O (stereo not given) | 64 to 66 °C
36 | CCCSc1cccc(-c2nc(=O)c3ccccc3s2)n1 | 124 to 125 °C
37 | CC(O)c1ccc(-c2ccc(OCc3ccc(Cl)cc3)cc2)cc1 (single isomer, unassigned; (+)) | 165 to 167 °C
38 | CC(C)(c1ccc2c(=O)c3ccccc3sc2c1)[N+](=O)[O-] | 131 to 133 °C
39 | CC1N=C(c2ccccc2)c2ccccc2NC1=O (stereo not given) | 160 to 162 °C
40 | NC(=O)c1c(F)cc(NC2CCNCC2)cc1F | 166 to 168 °C
41 | CC(C)CC1(C(CCN2C(=O)c3c(F)c(F)c(F)c(F)c3C2=O)C(=O)NO)CCN(CCc2ccccc2)C1=O (stereo not given) | 172 to 174 °C
42 | COC(=O)c1ccccc1C1CC(c2ccccc2)=NO1 (stereo not given) | 93.5 to 95 °C
43 | CC(C)(OCc1nn(Cc2ccccc2)c2ccccc12)C(=O)N1CCOCC1 | 135 to 137 °C
44 | Cc1cc2c(nc(C)n2CCc2ccccc2)c(N)n1 | 185 to 187 °C
45 | OCCCCCCOc1ccccc1 | 69 to 74 °C
46 | Cc1nc(O)c([N+](=O)[O-])c(O)n1 | > 300 °C
47 | Cn1ncsc1=NC(=S)Nc1ccccc1 | 174 to 175 °C
48 | CSCC(=O)C(Cc1ccccc1)NC(=O)C(CC(C)C)NC(=O)Cc1cccc2ccccc12 (stereo not given) | 126 to 129 °C
49 | Clc1ccc(-c2cnccn2)cc1 | 77 to 77.5 °C

Row | SMILES | melting point
50 | C[C@H]([C@](O)(Cn1cncn1)c1ccc(F)cc1F)S(=O)(=O)N1CCN(c2ccc(F)cc2)CC1 | 128 to 130 °C
51 | O=C(COc1ccon1)NCCO[N+](=O)[O-] | 67 to 69 °C
52 | O=C(NNC(=O)c1occ(-c2ccccc2)c1-c1ccccc1)c1ccc(O)c(I)c1 | 171 to 174 °C
53 | CCOC(=O)C1=C(COCCNC=O)NC(C)=C(C(=O)OC)C1c1cccc(Cl)c1Cl (stereo not given) | 178 to 181 °C
54 | Cc1ccc(CNc2nc(Cl)nc(Nc3ccc4[nH]c(=O)[nH]c4c3)n2)o1 | 164 to 166 °C
55 | N#CCOc1ccc2occ(CC#N)c2c1 | 86 to 87 °C
56 | CC(C)CC(=O)Nc1cc(-c2ccnc3c(C(=O)c4cccs4)cnn23)cs1 | 234 to 235 °C
57 | Cc1nnc(NC(=O)C(c2ccccc2)c2ccccc2)o1 | 160 to 161 °C
58 | CCCc1c(C(=O)C(C)C)c2ccc(C(=O)OC)cc2n1Cc1c(Cl)cccc1Cl | 130 to 132 °C
59 | NC(=O)c1nc(-c2ccc(Cl)cc2Cl)c(-c2ccc(Cl)cc2)s1 | 195 to 198 °C
60 | Cc1ccc(N(C)S(=O)(=O)c2cccs2)c2[nH]c(C3=NCC(C#N)S3)cc12 (stereo not given) | 173 to 174 °C
61 | CCCC(=O)Nc1ccc(-n2cc(CCCOc3c(CC(=O)O)cccc3OC)c(C(C)C)n2)nc1 | 119 to 120 °C
62 | CC(=O)c1c(-c2ccc(OCCBr)c3ccccc23)oc2ccccc12 | 115 to 117 °C
63 | COc1cc([N+](=O)[O-])ccc1S(=O)(=O)N1C(=O)C(NC(C)=O)(c2ccccc2Cl)c2cc(Cl)ccc21 (stereo not given) | 205 to 210 °C
64 | Cc1nc2ccccc2nc1Oc1ccc(OCc2ccccc2)cc1 | 99 to 102 °C
65 | Cc1ccc(Br)cc1NS(=O)(=O)c1ccccc1C(=O)O | 274 to 276 °C
66 | Nc1nc2ccc(Cc3ccc(F)cc3)cc2s1 | 162 to 164 °C
67 | CCOC(=O)Cc1cc(O)n[nH]1 | 114 to 117 °C
68 | COc1ccccc1[C@@]1(O)[C@H](O)CC(c2ccccc2)(c2ccccc2)[C@@H]2CN(C(=O)Cc3c[nH]c4ccccc34)C[C@@H]21 (racemic) | 266 °C
69 | Cn1c(-c2ccc(-n3ccnc3)cc2)cnc1[C@H](Cc1ccccn1)N(C=O)c1cc2cccnc2o1 | 108 to 110 °C
70 | CC(=O)NC(C)C(C)n1ncn(-c2ccc(N3CCN(c4ccc(O)cc4)CC3)cc2)c1=O (stereo not given) | 264 °C
